From patent EP4722207A1, “OXOISOINDOLINYL-SUBSTITUTED TETRAHYDROPYRIMIDINEDIONE DERIVATIVE AND USE THEREOF” (Gluetacs Therapeutics (Shanghai) Co., Ltd., priority 2023, dated 2024)

Assays:
Format in all cases: cell-based
Conditions in all cases: compounds at 50 nM and 500 nM, 24 hours
WEE1 = target: T1, WEE1 (Homo sapiens, UniProt P30291+Q96SW2); assay: Western-blot assay, substrate protein degradation in hPBMCs: WEE1
T1 construct: effects of the compounds of the present disclosure on the expression of target proteins in cells; endogenous in cells; host or cells: human PBMCs (hPBMCs)

IKZF1 = target: T2, IKZF1 (Homo sapiens, UniProt Q13422+Q96SW2); assay: Western-blot assay, substrate protein degradation in hPBMCs: IKZF1
T2 construct: effects of the compounds of the present disclosure on the expression of target proteins in cells; endogenous in cells; host or cells: human PBMCs (hPBMCs)

IKZF2 = target: T3, IKZF2 (Homo sapiens, UniProt Q96SW2+Q9UKS7); assay: Western-blot assay, substrate protein degradation in hPBMCs: IKZF2
T3 construct: effects of the compounds of the present disclosure on the expression of target proteins in cells; endogenous in cells; host or cells: human PBMCs (hPBMCs)

IKZF3 = target: T4, IKZF3 (Homo sapiens, UniProt Q96SW2+Q9UKT9); assay: Western-blot assay, substrate protein degradation in hPBMCs: IKZF3
T4 construct: effects of the compounds of the present disclosure on the expression of target proteins in cells; endogenous in cells; host or cells: human PBMCs (hPBMCs)

CK1α = target: T5, CK1α (Homo sapiens, UniProt P48729+Q96SW2); assay: Western-blot assay, substrate protein degradation in hPBMCs: CK1α
T5 construct: effects of the compounds of the present disclosure on the expression of target proteins in cells; endogenous in cells; host or cells: human PBMCs (hPBMCs)

GSPT1 = target: T6, GSPT1 (Homo sapiens, UniProt P15170+Q96SW2); assay: Western-blot assay, substrate protein degradation in hPBMCs: GSPT1
T6 construct: effects of the compounds of the present disclosure on the expression of target proteins in cells; endogenous in cells; host or cells: human PBMCs (hPBMCs)
T6 sequence (P15170 whole entry): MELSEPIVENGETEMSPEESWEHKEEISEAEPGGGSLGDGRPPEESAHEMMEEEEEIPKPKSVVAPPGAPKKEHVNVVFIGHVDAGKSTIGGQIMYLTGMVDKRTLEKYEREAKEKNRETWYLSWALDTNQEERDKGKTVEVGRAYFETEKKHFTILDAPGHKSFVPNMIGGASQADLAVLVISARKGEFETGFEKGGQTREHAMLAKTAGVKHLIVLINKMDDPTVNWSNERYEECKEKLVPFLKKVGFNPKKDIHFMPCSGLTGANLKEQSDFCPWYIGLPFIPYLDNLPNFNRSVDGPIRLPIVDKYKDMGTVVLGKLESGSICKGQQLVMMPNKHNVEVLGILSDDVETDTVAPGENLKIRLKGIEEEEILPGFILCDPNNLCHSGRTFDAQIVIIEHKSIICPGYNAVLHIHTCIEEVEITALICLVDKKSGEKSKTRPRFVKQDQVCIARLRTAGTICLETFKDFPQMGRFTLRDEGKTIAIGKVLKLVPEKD
T6 sequence (Q96SW2 whole entry): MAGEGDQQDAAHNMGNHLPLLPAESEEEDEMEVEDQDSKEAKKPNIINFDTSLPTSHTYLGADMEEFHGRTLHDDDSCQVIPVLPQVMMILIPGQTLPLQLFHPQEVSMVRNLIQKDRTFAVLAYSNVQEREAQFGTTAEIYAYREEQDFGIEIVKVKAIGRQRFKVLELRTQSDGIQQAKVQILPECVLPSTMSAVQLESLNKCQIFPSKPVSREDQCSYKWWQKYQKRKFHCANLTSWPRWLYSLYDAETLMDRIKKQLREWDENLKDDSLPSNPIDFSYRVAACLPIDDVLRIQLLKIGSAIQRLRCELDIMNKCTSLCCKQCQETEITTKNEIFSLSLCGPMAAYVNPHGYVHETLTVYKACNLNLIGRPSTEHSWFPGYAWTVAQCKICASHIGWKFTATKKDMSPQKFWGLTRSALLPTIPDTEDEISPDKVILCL
T6 sequence (Q16531 whole entry partner): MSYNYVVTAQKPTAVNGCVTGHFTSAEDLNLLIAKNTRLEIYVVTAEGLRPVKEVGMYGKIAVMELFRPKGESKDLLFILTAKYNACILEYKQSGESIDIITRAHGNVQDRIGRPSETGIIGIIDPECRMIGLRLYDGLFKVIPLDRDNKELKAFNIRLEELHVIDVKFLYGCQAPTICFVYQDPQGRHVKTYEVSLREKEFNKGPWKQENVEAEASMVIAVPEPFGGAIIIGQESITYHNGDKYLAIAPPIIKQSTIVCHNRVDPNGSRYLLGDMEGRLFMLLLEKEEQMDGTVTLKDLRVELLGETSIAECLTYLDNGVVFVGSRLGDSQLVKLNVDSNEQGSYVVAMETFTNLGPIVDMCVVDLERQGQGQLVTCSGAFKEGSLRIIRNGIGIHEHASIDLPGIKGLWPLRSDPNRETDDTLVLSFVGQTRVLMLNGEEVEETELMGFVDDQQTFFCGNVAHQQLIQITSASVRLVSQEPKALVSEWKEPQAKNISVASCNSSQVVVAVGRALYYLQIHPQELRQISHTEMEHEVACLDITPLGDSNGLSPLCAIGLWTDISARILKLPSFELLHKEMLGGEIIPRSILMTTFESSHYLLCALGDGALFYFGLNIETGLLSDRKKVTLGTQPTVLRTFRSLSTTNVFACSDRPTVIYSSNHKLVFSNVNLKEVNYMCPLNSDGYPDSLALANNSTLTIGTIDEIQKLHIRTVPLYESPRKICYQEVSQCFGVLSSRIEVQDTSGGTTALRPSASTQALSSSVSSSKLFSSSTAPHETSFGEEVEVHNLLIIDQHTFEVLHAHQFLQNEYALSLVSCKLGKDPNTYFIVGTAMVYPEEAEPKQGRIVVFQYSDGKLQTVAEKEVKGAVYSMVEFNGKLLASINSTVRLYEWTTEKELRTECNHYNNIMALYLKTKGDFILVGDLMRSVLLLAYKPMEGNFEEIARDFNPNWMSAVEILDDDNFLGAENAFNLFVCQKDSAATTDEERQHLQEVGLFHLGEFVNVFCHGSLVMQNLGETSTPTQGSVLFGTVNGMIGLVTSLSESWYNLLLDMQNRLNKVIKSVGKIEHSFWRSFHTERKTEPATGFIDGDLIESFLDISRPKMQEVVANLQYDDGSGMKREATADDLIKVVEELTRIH

T1 sequence (P30291 whole entry): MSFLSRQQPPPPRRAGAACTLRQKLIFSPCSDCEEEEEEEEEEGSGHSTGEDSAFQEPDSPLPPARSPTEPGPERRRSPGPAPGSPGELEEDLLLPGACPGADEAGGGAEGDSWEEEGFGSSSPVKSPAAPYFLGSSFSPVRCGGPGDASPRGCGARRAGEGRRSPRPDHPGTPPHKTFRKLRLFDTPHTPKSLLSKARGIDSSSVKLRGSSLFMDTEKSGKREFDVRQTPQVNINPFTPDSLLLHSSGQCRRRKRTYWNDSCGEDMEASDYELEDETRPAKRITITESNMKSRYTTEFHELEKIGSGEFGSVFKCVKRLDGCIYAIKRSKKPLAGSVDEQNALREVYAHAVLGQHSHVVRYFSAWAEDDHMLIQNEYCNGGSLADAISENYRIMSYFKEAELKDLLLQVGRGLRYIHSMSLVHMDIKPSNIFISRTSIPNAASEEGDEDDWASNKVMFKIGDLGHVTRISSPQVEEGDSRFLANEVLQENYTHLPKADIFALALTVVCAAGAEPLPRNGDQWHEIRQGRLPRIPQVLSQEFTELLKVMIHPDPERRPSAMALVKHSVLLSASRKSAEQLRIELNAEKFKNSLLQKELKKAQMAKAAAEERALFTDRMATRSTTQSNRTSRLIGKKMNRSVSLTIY
T1 sequence (Q96SW2 whole entry): as the sequence (Q96SW2 whole entry) above
T1 sequence (Q16531 whole entry partner): as the sequence (Q16531 whole entry partner) above
T4 sequence (Q9UKT9 whole entry): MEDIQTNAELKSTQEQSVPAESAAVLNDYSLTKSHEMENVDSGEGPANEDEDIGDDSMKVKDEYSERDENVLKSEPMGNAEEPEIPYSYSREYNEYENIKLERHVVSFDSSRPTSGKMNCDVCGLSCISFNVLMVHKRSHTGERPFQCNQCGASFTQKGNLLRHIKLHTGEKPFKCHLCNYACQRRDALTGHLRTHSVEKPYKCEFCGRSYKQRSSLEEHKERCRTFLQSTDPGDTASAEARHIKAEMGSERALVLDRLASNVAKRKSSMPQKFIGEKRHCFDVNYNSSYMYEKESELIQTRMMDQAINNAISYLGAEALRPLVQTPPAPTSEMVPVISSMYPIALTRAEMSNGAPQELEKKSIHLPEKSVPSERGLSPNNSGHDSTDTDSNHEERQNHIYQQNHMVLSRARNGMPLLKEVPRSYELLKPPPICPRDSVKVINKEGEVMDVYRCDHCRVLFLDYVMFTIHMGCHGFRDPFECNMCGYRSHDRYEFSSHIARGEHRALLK
T4 sequence (Q96SW2 whole entry): as the sequence (Q96SW2 whole entry) above
T4 sequence (Q16531 whole entry partner): as the sequence (Q16531 whole entry partner) above
T5 sequence (P48729 whole entry): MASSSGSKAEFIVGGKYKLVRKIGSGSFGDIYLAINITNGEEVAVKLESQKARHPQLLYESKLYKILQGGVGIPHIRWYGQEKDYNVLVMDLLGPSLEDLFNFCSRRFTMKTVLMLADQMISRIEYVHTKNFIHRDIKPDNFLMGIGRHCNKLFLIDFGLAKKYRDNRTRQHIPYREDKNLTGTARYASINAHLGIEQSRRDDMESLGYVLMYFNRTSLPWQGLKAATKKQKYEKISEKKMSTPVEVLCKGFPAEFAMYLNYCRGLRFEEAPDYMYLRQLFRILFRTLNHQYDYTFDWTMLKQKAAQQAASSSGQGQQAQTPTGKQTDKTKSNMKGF
T5 sequence (Q96SW2 whole entry): as the sequence (Q96SW2 whole entry) above
T5 sequence (Q16531 whole entry partner): as the sequence (Q16531 whole entry partner) above
T3 sequence (Q9UKS7 whole entry): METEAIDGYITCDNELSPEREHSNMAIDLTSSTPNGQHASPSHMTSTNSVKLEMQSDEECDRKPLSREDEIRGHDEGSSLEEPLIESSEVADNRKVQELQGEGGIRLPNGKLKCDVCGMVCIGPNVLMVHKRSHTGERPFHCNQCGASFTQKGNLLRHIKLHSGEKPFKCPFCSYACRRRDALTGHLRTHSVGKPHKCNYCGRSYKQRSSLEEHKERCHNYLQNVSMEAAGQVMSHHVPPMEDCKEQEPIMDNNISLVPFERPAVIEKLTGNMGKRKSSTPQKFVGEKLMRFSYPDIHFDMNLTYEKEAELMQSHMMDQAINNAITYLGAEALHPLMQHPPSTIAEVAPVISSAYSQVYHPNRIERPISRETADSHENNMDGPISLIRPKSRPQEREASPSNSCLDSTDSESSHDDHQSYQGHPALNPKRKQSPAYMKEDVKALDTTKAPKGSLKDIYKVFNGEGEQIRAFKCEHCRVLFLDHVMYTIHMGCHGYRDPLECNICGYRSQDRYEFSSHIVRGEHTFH
T3 sequence (Q96SW2 whole entry): as the sequence (Q96SW2 whole entry) above
T3 sequence (Q16531 whole entry partner): as the sequence (Q16531 whole entry partner) above

Row | SMILES | WEE1 substrate protein remaining % (WEE1) | IKZF1 substrate protein remaining % (IKZF1) | IKZF2 substrate protein remaining % (IKZF2) | IKZF3 substrate protein remaining % (IKZF3) | CK1α substrate protein remaining % (CK1α) | GSPT1 substrate protein remaining % (GSPT1)
1 | O=C1CCN(N2Cc3cc(CN4CCN(c5cnnc(Cl)c5Cl)CC4)ccc3C2=O)C(=O)N1 [GT-07029, 1-(5-((4-(5,6-dichloropyridazin-4-yl)piperazin-1-yl)methyl)-1-oxoisoindolin-2-yl)dihydropyrimidine-2,4(1H,3H)-dione] | A ("A" is defined as 0% ≤ substrate protein remaining % ≤ 80%) | B ("B" is defined as 80%< substrate protein remaining %≤ 100%) | A ("A" is defined as 0% ≤ substrate protein remaining % ≤ 80%) | B ("B" is defined as 80%< substrate protein remaining %≤ 100%) | B ("B" is defined as 80%< substrate protein remaining %≤ 100%) | A ("A" is defined as 0% ≤ substrate protein remaining % ≤ 80%)
2 | O=C1CCN(N2Cc3cc(CN4CCN(c5cc(Cl)nnc5Cl)CC4)ccc3C2=O)C(=O)N1 [GT-07030, 1-(5-((4-(3,6-dichloropyridazin-4-yl)piperazin-1-yl)methyl)-1-oxoisoindolin-2-yl)dihydropyrimidine-2,4(1H,3H)-dione] | B ("B" is defined as 80%< substrate protein remaining %≤ 100%) | B ("B" is defined as 80%< substrate protein remaining %≤ 100%) | A ("A" is defined as 0% ≤ substrate protein remaining % ≤ 80%) | B ("B" is defined as 80%< substrate protein remaining %≤ 100%) | B ("B" is defined as 80%< substrate protein remaining %≤ 100%) | B ("B" is defined as 80%< substrate protein remaining %≤ 100%)
3 | O=C1CCN(N2Cc3cc(CN4CCN(c5ncncn5)CC4)ccc3C2=O)C(=O)N1 [GT-07031, 1-(5-((4-(1,3,5-triazin-2-yl)piperazin-1-yl)methyl)-1-oxoisoindolin-2-yl)dihydropyrimidine-2,4(1H,3H)-dione] | B ("B" is defined as 80%< substrate protein remaining %≤ 100%) | A ("A" is defined as 0% ≤ substrate protein remaining % ≤ 80%) | B ("B" is defined as 80%< substrate protein remaining %≤ 100%) | A ("A" is defined as 0% ≤ substrate protein remaining % ≤ 80%) | A ("A" is defined as 0% ≤ substrate protein remaining % ≤ 80%) | A ("A" is defined as 0% ≤ substrate protein remaining % ≤ 80%)
4 | O=C1CCN(N2Cc3cc(CN4CCN(c5c(Cl)cncc5Cl)CC4)ccc3C2=O)C(=O)N1 [GT-07032, 1-(5-((4-(3,5-dichloropyridin-4-yl)piperazin-1-yl)methyl)-1-oxoisoindolin-2-yl)dihydropyrimidine-2,4(1H,3H)-dione] | B ("B" is defined as 80%< substrate protein remaining %≤ 100%) | B ("B" is defined as 80%< substrate protein remaining %≤ 100%) | B ("B" is defined as 80%< substrate protein remaining %≤ 100%) | B ("B" is defined as 80%< substrate protein remaining %≤ 100%) | B ("B" is defined as 80%< substrate protein remaining %≤ 100%) | A ("A" is defined as 0% ≤ substrate protein remaining % ≤ 80%)
5 | Cc1cc(N2CCN(Cc3ccc4c(c3)CN(N3CCC(=O)NC3=O)C4=O)CC2)cc(C)n1 [GT-07033, 1-(5-((4-(2,6-dimethylpyridin-4-yl)piperazin-1-yl)methyl)-1-oxoisoindolin-2-yl)dihydropyrimidine-2,4(1H,3H)-dione] | B ("B" is defined as 80%< substrate protein remaining %≤ 100%) | B ("B" is defined as 80%< substrate protein remaining %≤ 100%) | B ("B" is defined as 80%< substrate protein remaining %≤ 100%) | B ("B" is defined as 80%< substrate protein remaining %≤ 100%) | B ("B" is defined as 80%< substrate protein remaining %≤ 100%) | A ("A" is defined as 0% ≤ substrate protein remaining % ≤ 80%)
6 | O=C1CCN(N2C(=O)c3ccc(CN4CCN(c5ncnc(Cl)c5Cl)CC4)cc3C2=O)C(=O)N1 [GT-07034, 5-((4-(5,6-dichloropyrimidin-4-yl)piperazin-1-yl)methyl)-2-(2,4-dioxotetrahydropyrimidin-1(2H)-yl)isoindoline-1,3-dione] | A ("A" is defined as 0% ≤ substrate protein remaining % ≤ 80%) | A ("A" is defined as 0% ≤ substrate protein remaining % ≤ 80%) | A ("A" is defined as 0% ≤ substrate protein remaining % ≤ 80%) | A ("A" is defined as 0% ≤ substrate protein remaining % ≤ 80%) | A ("A" is defined as 0% ≤ substrate protein remaining % ≤ 80%) | A ("A" is defined as 0% ≤ substrate protein remaining % ≤ 80%)
7 | O=C1CCN(N2C(=O)c3ccc(CN4CCN(c5cnnc(Cl)c5Cl)CC4)cc3C2=O)C(=O)N1 [GT-07035, 5-((4-(5,6-dichloropyridazin-4-yl)piperazin-1-yl)methyl)-2-(2,4-dioxotetrahydropyrimidin-1(2H)-yl)isoindoline-1,3-dione] | B ("B" is defined as 80%< substrate protein remaining %≤ 100%) | B ("B" is defined as 80%< substrate protein remaining %≤ 100%) | B ("B" is defined as 80%< substrate protein remaining %≤ 100%) | A ("A" is defined as 0% ≤ substrate protein remaining % ≤ 80%) | A ("A" is defined as 0% ≤ substrate protein remaining % ≤ 80%) | A ("A" is defined as 0% ≤ substrate protein remaining % ≤ 80%)
8 | O=C1CCN(N2C(=O)c3ccc(CN4CCN(c5cc(Cl)nnc5Cl)CC4)cc3C2=O)C(=O)N1 [GT-07036, 5-((4-(3,6-dichloropyridazin-4-yl)piperazin-1-yl)methyl)-2-(2,4-dioxotetrahydropyrimidin-1(2H)-yl)isoindoline-1,3-dione] | B ("B" is defined as 80%< substrate protein remaining %≤ 100%) | B ("B" is defined as 80%< substrate protein remaining %≤ 100%) | B ("B" is defined as 80%< substrate protein remaining %≤ 100%) | B ("B" is defined as 80%< substrate protein remaining %≤ 100%) | B ("B" is defined as 80%< substrate protein remaining %≤ 100%) | A ("A" is defined as 0% ≤ substrate protein remaining % ≤ 80%)
9 | O=C1CCN(N2C(=O)c3ccc(CN4CCN(c5ncncn5)CC4)cc3C2=O)C(=O)N1 [GT-07037, 5-((4-(1,3,5-triazin-2-yl)piperazin-1-yl)methyl)-2-(2,4-dioxotetrahydropyrimidin-1(2H)-yl)isoindoline-1,3-dione] | B ("B" is defined as 80%< substrate protein remaining %≤ 100%) | B ("B" is defined as 80%< substrate protein remaining %≤ 100%) | B ("B" is defined as 80%< substrate protein remaining %≤ 100%) | B ("B" is defined as 80%< substrate protein remaining %≤ 100%) | B ("B" is defined as 80%< substrate protein remaining %≤ 100%) | A ("A" is defined as 0% ≤ substrate protein remaining % ≤ 80%)
10 | O=C1CCN(N2C(=O)c3ccc(CN4CCN(c5c(Cl)cncc5Cl)CC4)cc3C2=O)C(=O)N1 [GT-07038, 5-((4-(3,5-dichloropyridin-4-yl)piperazin-1-yl)methyl)-2-(2,4-dioxotetrahydropyrimidin-1(2H)-yl)isoindoline-1,3-dione] | A ("A" is defined as 0% ≤ substrate protein remaining % ≤ 80%) | A ("A" is defined as 0% ≤ substrate protein remaining % ≤ 80%) | A ("A" is defined as 0% ≤ substrate protein remaining % ≤ 80%) | A ("A" is defined as 0% ≤ substrate protein remaining % ≤ 80%) | A ("A" is defined as 0% ≤ substrate protein remaining % ≤ 80%) | A ("A" is defined as 0% ≤ substrate protein remaining % ≤ 80%)
11 | O=C1CCN(N2Cc3cc(CN4CCN(c5ccnc(Cl)c5F)CC4)ccc3C2=O)C(=O)N1 [GT-07069, 1-(5-((4-(2-chloro-3-fluoropyridin-4-yl)piperazin-1-yl)methyl)-1-oxoisoindolin-2-yl)dihydropyrimidine-2,4(1H,3H)-dione] | A ("A" is defined as 0% ≤ substrate protein remaining % ≤ 80%) | B ("B" is defined as 80%< substrate protein remaining %≤ 100%) | B ("B" is defined as 80%< substrate protein remaining %≤ 100%) | B ("B" is defined as 80%< substrate protein remaining %≤ 100%) | B ("B" is defined as 80%< substrate protein remaining %≤ 100%) | B ("B" is defined as 80%< substrate protein remaining %≤ 100%)
